In patent publication US8318707B2 (priority 2006, dated 2012):

How the values were obtained:
[1] = system: mixed neural culture of hippocampus cells exposed to kainate; type: cell-based, rat
[2] = system: permanent focal ischemia (occlusion of the middle cerebral artery); experiment: in vivo permanent focal ischemia model in mice (MCAo), lesion volume by TTC colouring
[3] = system: organotypical slices of rat hippocampus (CA3 region); experiment: in vitro complex excitotoxicity model: organotypical rat hippocampus culture exposed to kainate; details: 20 μM, 24 hours

CC[C@H](CO)Nc1nc(NCc2ccccc2)c2ncn(C(C)C)c2n1 [(R)-roscovitine]
amount necessary compared with (S)-roscovitine to prevent the death of the same number of neurones [1]: Three times more | neuronal death percentage (RND) [1]: 62%

CC[C@@H](CO)Nc1nc(NCc2ccccc2)c2ncn(C(C)C)c2n1 [(S)-roscovitine]
neurones prevented from death compared with (R)-roscovitine [1]: twice as many | reduction in the size of the penumbra zone compared with the control ([2]; ICV, 500 μM, 3 hours after occlusion): 35.8% | volume of the necrotic core ([2]; ICV, 500 μM, 3 hours after occlusion (control 6.06 mm3)): 5.39 mm3 | volume of the penumbra zone ([2]; ICV, 500 μM, 3 hours after occlusion (control 12.68 mm3)): 8.14 mm3 | total volume of the lesion ([2]; ICV, 500 μM, 3 hours after occlusion (control 18.74 mm3)): 13.54 mm3 | reduction in the total volume of the lesion compared with the control ([2]; intracerebroventricular (ICV), 500 μM by osmotic micropump from 48 hours before MCAo, 3 hours after occlusion): 27.7% | reduction in the size of the penumbra compared with the control ([2]; systemic (PI), 25 mg/kg intraperitoneal x2, 3 hours after occlusion): 38.9% | volume of the necrotic core ([2]; systemic (PI), 25 mg/kg intraperitoneal x2, 3 hours after occlusion (control 5.03 mm3)): 4.88 mm3 | volume of the penumbra zone ([2]; systemic (PI), 25 mg/kg intraperitoneal x2, 3 hours after occlusion (control 15.31 mm3)): 9.22 mm3 | total volume of the lesion ([2]; systemic (PI), 25 mg/kg intraperitoneal x2, 3 hours after occlusion (control 20.34 mm3)): 14.10 mm3 | reduction in the total volume of the lesion compared with the control ([2]; systemic (PI), 25 mg/kg, 2 intraperitoneal injections 15 minutes before and 1 hour after MCAo, 3 hours after occlusion): 30.7% | toxic effect on organotypical rat hippocampus cultures [3]: absence of toxic effect
